Measured values published in ChEMBL document CHEMBL1268945, “Sequential cytotoxicity: a theory examined using a series of 3,5-bis(benzylidene)-1-diethylphosphono-4-oxopiperidines and related phosphonic acids” (Bioorg Med Chem Lett, 2010).
The source made the active and inactive calls. The rule behind the calls is not given here.

Legend:
HL-60 [1] = test: Cytotoxicity against human HL60 cells; assay type: functional
HL-60 [2] = test: Selectivity index, ratio of CC50 for normal cells to CC50 for human HL60 cells; assay type: functional
HSC-2 [3] = test: Cytotoxicity against human HSC2 cells; assay type: functional
HSC-2 [4] = test: Selectivity index, ratio of CC50 for normal cells to CC50 for human HSC2 cells; assay type: functional
HSC-3 [5] = test: Cytotoxicity against human HSC3 cells; assay type: functional
HSC-3 [6] = test: Selectivity index, ratio of CC50 for normal cells to CC50 for human HSC3 cells; assay type: functional
HSC-4 [7] = test: Cytotoxicity against human HSC4 cells; assay type: functional
HSC-4 [8] = test: Selectivity index, ratio of CC50 for normal cells to CC50 for human HSC4 cells; assay type: functional
[9] = Cytotoxicity against human HGF cells; assay type: cell-based
[10] = Cytotoxicity against human HPC cells; assay type: cell-based
[11] = Cytotoxicity against human HPLF cells; assay type: cell-based
HL-60 [12] = test: Induction of apoptosis in human HL60 cells assessed as activation of caspase 3 after 6 hrs; assay type: functional, cell-based
HSC-2 [13] = test: Induction of apoptosis in human HSC2 cells assessed as activation of caspase 3 after 6 hrs; assay type: functional, cell-based
HL-60 [14] = test: Induction of internucleosomal DNA fragmentation in human HL60 cells after 6 hrs; assay type: functional, cell-based
HSC-2 [15] = test: Induction of internucleosomal DNA fragmentation in human HSC2 cells after 6 hrs; assay type: functional, cell-based
HSC-4 [16] = test: Induction of internucleosomal DNA fragmentation in human HSC4 cells after 6 hrs; assay type: functional, cell-based

Row | SMILES | CC50 (HL-60 [1]) | Selectivity Index (HL-60 [2]) | CC50 (HSC-2 [3]) | Selectivity Index (HSC-2 [4]) | CC50 (HSC-3 [5]) | Selectivity Index (HSC-3 [6]) | CC50 (HSC-4 [7]) | Selectivity Index (HSC-4 [8]) | CC50 [9] | CC50 [10] | CC50 [11] | Activity (HL-60 [12]) | Activity (HSC-2 [13]) | Activity (HL-60 [14]) | Activity (HSC-2 [15]) | Activity (HSC-4 [16])
1 | COc1ccc(/C=C2\CN(P(=O)(O)O)C/C(=C\c3ccc(OC)c(OC)c3)C2=O)cc1OC | 0.26 µM | 8.1 | 0.4 µM | 5.3 | 0.59 µM | 3.6 | 0.42 µM | 5 | 2.6 µM | 1.3 µM | 2.5 µM |  |  |  |  | 
2 | CCOP(=O)(OCC)N1C/C(=C\c2ccc(Cl)cc2)C(=O)/C(=C/c2ccc(Cl)cc2)C1 | 0.6 µM | 6.7 | 1.5 µM | 2.7 | 2 µM | 2 | 0.64 µM | 6.3 | 4.3 µM | 2.8 µM | 4.8 µM |  |  |  |  | 
3 | O=C1/C(=C/c2ccccc2[N+](=O)[O-])CN(P(=O)(O)O)C/C1=C\c1ccccc1[N+](=O)[O-] | 0.07 µM | 30 | 0.17 µM | 13 | 0.32 µM | 6.9 | 0.1 µM | 22 | 1.4 µM | 2.1 µM | 3 µM |  |  |  |  | 
4 | CCOP(=O)(OCC)N1C/C(=C\c2ccccc2[N+](=O)[O-])C(=O)/C(=C/c2ccccc2[N+](=O)[O-])C1 | 0.38 µM | 37 | 1.6 µM | 8.8 | 1.2 µM | 12 | 1.8 µM | 7.8 | 18 µM | 8.3 µM | 15 µM |  |  |  |  | 
5 | COc1ccc(/C=C2\CN(P(=O)(O)O)C/C(=C\c3ccc(OC)cc3)C2=O)cc1 | 5.6 µM | 12 | 1.7 µM | 40 | 2.2 µM | 31 | 3.9 µM | 17 | 107 µM | 54 µM | 44 µM |  |  |  |  | 
6 | O=C1/C(=C/c2ccccc2)CN(P(=O)(O)O)C/C1=C\c1ccccc1 | 0.46 µM | 12 | 0.77 µM | 7.4 | 0.98 µM | 5.8 | 0.57 µM | 10 | 6.9 µM | 3.2 µM | 7 µM |  |  |  |  | 
7 | O=C1/C(=C/c2ccc([N+](=O)[O-])cc2)CN(P(=O)(O)O)C/C1=C\c1ccc([N+](=O)[O-])cc1 | 0.14 µM | 21 | 0.18 µM | 17 | 0.23 µM | 13 | 0.13 µM | 23 | 4.1 µM | 1.6 µM | 3.4 µM |  |  |  |  | 
8 | N[C@@H](Cc1ccc(N(CCCl)CCCl)cc1)C(=O)O [MELPHALAN] | 1.4 µM | 150 | 8.7 µM | 24 | 25 µM | 8.4 | 32 µM | 6.6 | 161 µM | 269 µM | 199 µM |  |  |  |  | 
9 | O=C1/C(=C/c2cccc([N+](=O)[O-])c2)CN(P(=O)(O)O)C/C1=C\c1cccc([N+](=O)[O-])c1 | 0.09 µM | 30 | 0.2 µM | 13 | 0.18 µM | 14 | 0.14 µM | 19 | 2.3 µM | 2.2 µM | 3.3 µM |  |  |  |  | 
10 | COc1cc(/C=C2\CN(P(=O)(O)O)C/C(=C\c3cc(OC)c(OC)c(OC)c3)C2=O)cc(OC)c1OC | 0.06 µM | 12 | 0.13 µM | 6.2 | 0.27 µM | 3 | 0.12 µM | 6.7 | 0.88 µM | 0.59 µM | 1 µM |  |  |  |  | 
11 | CCOP(=O)(OCC)N1C/C(=C\c2ccc([N+](=O)[O-])cc2)C(=O)/C(=C/c2ccc([N+](=O)[O-])cc2)C1 | 0.14 µM | 17 | 0.33 µM | 7.3 | 0.38 µM | 6.3 | 0.72 µM | 3.3 | 3.1 µM | 1.9 µM | 2.2 µM |  |  |  |  | 
12 | CCOP(=O)(OCC)N1C/C(=C\c2ccc(OC)cc2)C(=O)/C(=C/c2ccc(OC)cc2)C1 | 1.9 µM | 25 | 0.92 µM | 51 | 0.66 µM | 71 | 1.3 µM | 36 | 53 µM | 41 µM | 46 µM | Dose-dependent effect | inactive | Active | inactive | inactive
13 | CCOP(=O)(OCC)N1C/C(=C\c2cccc([N+](=O)[O-])c2)C(=O)/C(=C/c2cccc([N+](=O)[O-])c2)C1 | 0.05 µM | 54 | 0.76 µM | 3.3 | 0.74 µM | 3.4 | 0.26 µM | 9.6 | 2.2 µM | 1.5 µM | 3.9 µM |  |  |  |  | 
14 | CCOP(=O)(OCC)N1C/C(=C\c2ccc(C)cc2)C(=O)/C(=C/c2ccc(C)cc2)C1 | 3.3 µM | 6.7 | 4.9 µM | 4.5 | 4.1 µM | 5.4 | 4.6 µM | 4.8 | 28 µM | 18 µM | 21 µM |  |  |  |  | 
15 | CCOP(=O)(OCC)N1C/C(=C\c2cc(OC)c(OC)c(OC)c2)C(=O)/C(=C/c2cc(OC)c(OC)c(OC)c2)C1 | 0.29 µM | 6.2 | 0.33 µM | 5.5 | 0.43 µM | 4.2 | 0.16 µM | 11 | 2 µM | 1.3 µM | 2.2 µM |  |  |  |  | 
16 | CCOP(=O)(OCC)N1C/C(=C\c2ccc(OC)c(OC)c2)C(=O)/C(=C/c2ccc(OC)c(OC)c2)C1 | 0.75 µM | 8.4 | 1.7 µM | 3.7 | 1.4 µM | 4.5 | 0.5 µM | 13 | 7.4 µM | 6.2 µM | 5.3 µM |  |  |  |  | 
17 | Cc1ccc(/C=C2\CN(P(=O)(O)O)C/C(=C\c3ccc(C)cc3)C2=O)cc1 | 1.1 µM | 4.6 | 0.76 µM | 6.7 | 0.95 µM | 5.4 | 0.96 µM | 5.3 | 5.9 µM | 3.3 µM | 6.1 µM |  |  |  |  | 
18 | O=C1/C(=C/c2ccc(Cl)cc2)CN(P(=O)(O)O)C/C1=C\c1ccc(Cl)cc1 | 0.46 µM | 9.8 | 0.42 µM | 11 | 0.41 µM | 11 | 0.72 µM | 6.3 | 5.9 µM | 2.6 µM | 5.1 µM |  |  |  |  | 
19 | CCOP(=O)(OCC)N1C/C(=C\c2ccccc2)C(=O)/C(=C/c2ccccc2)C1 | 0.61 µM | 15 | 2.4 µM | 3.8 | 2.5 µM | 3.7 | 1.1 µM | 8.4 | 11 µM | 6.5 µM | 10 µM |  |  |  |  | 
